Source: ChEMBL document CHEMBL1201862, “PubChem BioAssay data set” (2004)
Activity calls are given as the source filed them.

Tests used:
[1] = mammalian cell cytotoxicity, dose response, cytotoxicity control, plate reader, cherry-pick samples (AID 504397); type: functional, cell-based
[2] = molecular target: T1, CAAX prenyl protease 2 (Saccharomyces cerevisiae S288c, UniProt Q03530); type: biochemical
T1 sequence (Q03530 whole entry): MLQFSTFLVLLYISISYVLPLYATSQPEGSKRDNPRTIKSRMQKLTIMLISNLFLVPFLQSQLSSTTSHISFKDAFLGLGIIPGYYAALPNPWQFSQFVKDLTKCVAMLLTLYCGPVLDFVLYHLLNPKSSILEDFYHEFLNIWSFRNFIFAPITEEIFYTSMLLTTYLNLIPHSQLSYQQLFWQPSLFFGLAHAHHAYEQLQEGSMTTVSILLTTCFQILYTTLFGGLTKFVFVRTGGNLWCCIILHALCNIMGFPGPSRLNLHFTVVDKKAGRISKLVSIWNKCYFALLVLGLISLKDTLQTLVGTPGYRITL

[3] = Luminescence Cell-Based Dose Retest to Confirm Inhibitors of Cancer Stem Cells. [Related pubchem assays (depositor defined):AID2717, AID2721]; type: functional; details: Homo sapiens
[4] = Luminescence Cell-Based Dose Response HTS to Identify Inhibitors of 5'UTR Stem-Loop Driven Prion Protein mRNA Translation in H4 Neuroglioblastoma Cells. [Related pubchem assays: 1827 (Project Summary), 1813 (Primary HTS)]; type: functional
[5] = Luminescence Cell-Based Dose Confirmation HTS to Identify Inhibitors of 5'UTR Stem-Loop Driven Alpha-Synuclein mRNA Translation in H4 Neuroglioblastoma Cells. [Related pubchem assays: 1827 (Project Summary), 1813 (Primary HTS)]; type: functional
[6] = Luminescence Cell-Based Dose HTS Response to Identify Inhibitors of 5'UTR Stem-Loop Driven Prion Protein mRNA Translation in H4-C Neuroglioblastoma Cells. [Related pubchem assays (depositor defined):AID1814, AID1827]; type: functional
[7] = Luminescence Cell-Based Dose Retest to Confirm Activators of 5'UTR Stem-Loop Driven Alpha-Synuclein mRNA Translation in H4 Neuroglioblastoma Cells. [Related pubchem assays (depositor defined):AID1813, AID1829]; type: functional
[8] = Luminescence Cell-Based Dose Response HTS to Identify Activators of 5'UTR Stem-Loop Driven Prion Protein mRNA Translation in H4-C Neuroglioblastoma Cells. [Related pubchem assays: 1829 (Project Summary), 1814 (Primary HTS)]; type: functional
[9] = inhibitors of SNCA 5'UTR-driven reporter translation, confirmation, H4 neuroglioma cells, luminescence (AID 1988); type: functional, cell-based
[10] = Luminescence Cell-Based Dose Response HTS to Identify Activators of Luciferase Translation or Activity in H4-C Neuroglioblastoma Cells. [Related pubchem assays: 1829 (Project Summary), 1814 (Primary HTS)]; type: functional
[11] = Luminescence Cell-Based Dose Response HTS to Identify Inhibitors of Luciferase Translation or Activity in H4-C Neuroglioblastoma Cells. [Related pubchem assays: 1813 (Primary HTS), 1827 (Project Summary)]; type: functional
[12] = inhibitors of firefly luciferase expression or activity, dose response, H4 neuroglioma cells, luminescence (AID 1990); type: functional, cell-based
[13] = molecular target: T2, Carboxy-terminal domain RNA polymerase II polypeptide A small phosphatase 1 (Homo sapiens, UniProt Q9GZU7); assay: inhibitors of CTDSP1, concentration-response testing, biochemical assay, absorbance-based, actives from ultra-high-throughput screening (AID 540297); type: functional
T2 sequence (Q9GZU7 whole entry): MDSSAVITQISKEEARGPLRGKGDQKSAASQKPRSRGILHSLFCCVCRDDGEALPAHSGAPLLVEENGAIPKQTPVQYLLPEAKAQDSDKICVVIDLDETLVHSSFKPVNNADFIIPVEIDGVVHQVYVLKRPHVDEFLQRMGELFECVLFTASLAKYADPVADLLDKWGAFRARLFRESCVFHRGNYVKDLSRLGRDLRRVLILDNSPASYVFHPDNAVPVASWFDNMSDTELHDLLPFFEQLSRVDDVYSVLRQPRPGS

[14] = molecular target: DNA dC->dU-editing enzyme APOBEC-3A (Homo sapiens, UniProt P31941); assay: Dose Response confirmation of small molecule APOBEC3A DNA Deaminase Inhibitors via a fluorescence-based single-stranded DNA deaminase assay. [Related pubchem assays (depositor defined):AID493011, AID493024]; type: functional
[15] = molecular target: T3, Heat shock factor protein 1 (Mus musculus, UniProt P38532); assay: inhibition of MG132-induced HSE-luciferase signal, confirmation, cell-based, NIH3T3, luminescence, dose retest (AID 2382); type: functional;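 note: NIH3T3 fibroblasts with HSF1-driven luciferase reporter stressed by proteasome inhibitor MG132; luminescence from HSF1-driven luciferase expression after 8 hours of MG132 stress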
T3 sequence (P38532 whole entry): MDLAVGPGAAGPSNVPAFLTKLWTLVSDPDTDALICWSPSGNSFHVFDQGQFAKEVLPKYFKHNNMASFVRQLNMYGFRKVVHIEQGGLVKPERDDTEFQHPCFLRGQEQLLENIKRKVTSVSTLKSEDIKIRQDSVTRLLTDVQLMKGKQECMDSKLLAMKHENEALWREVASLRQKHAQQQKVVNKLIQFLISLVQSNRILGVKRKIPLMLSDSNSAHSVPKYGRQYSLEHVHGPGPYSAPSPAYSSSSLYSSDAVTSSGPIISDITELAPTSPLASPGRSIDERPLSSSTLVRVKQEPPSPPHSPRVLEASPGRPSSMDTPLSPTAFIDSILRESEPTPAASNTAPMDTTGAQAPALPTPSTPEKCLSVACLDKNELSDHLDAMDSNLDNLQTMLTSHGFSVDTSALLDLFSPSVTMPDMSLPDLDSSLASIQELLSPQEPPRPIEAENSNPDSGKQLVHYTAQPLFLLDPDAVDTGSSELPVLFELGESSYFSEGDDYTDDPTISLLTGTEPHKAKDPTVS

[16] = molecular target: DNA dC->dU-editing enzyme APOBEC-3G (Homo sapiens, UniProt Q9HC16); type: functional;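 note: Dose-response counterscreen measuring inhibition of APOBEC3G DNA deaminase activity, run while confirming APOBEC3A inhibitors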
[17] = molecular target: T4, Sphingosine 1-phosphate receptor 4 (Homo sapiens, UniProt O95977); assay: Late-stage fluorescence dose response cell-based assay to identify agonists of the Sphingosine 1-Phosphate Receptor 4 (S1P4): purchased compounds EC50. [Related pubchem assays (depositor defined):AID1509, AID1523, AID1563, AID1686, AID1701, AID1801]; type: functional
T4 sequence (O95977 whole entry): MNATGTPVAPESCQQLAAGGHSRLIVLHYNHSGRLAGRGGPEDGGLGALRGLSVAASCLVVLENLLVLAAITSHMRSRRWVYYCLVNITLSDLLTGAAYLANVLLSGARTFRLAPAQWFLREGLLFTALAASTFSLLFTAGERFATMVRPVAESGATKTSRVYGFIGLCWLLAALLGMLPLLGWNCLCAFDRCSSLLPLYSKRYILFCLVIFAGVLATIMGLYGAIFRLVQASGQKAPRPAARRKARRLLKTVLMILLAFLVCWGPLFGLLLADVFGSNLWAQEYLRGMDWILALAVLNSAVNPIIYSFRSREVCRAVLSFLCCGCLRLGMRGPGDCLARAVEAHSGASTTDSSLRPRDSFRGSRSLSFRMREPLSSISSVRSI

[18] = molecular target: T5, Runt-related transcription factor 1/Core-binding factor subunit beta (Homo sapiens, UniProt Q01196+Q13951); assay: inhibitors of RUNX1 Runt–CBFb-SMMHC binding, biochemical, TR-FRET (AID 1438); type: protein assay
[19] = molecular target: T5, Runt-related transcription factor 1/Core-binding factor subunit beta; assay: inhibitors of RUNX1 Runt–CBFb-SMMHC binding, primary screen, biochemical, FRET, Cerulean-Runt, Venus-CBFb-SMMHC, uHTS (AID 1434); type: protein assay;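 note: partner is the CBFb-SMMHC leukemia fusion protein rather than wild-type CBFb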
[20] = molecular target: Troponin, cardiac muscle (Homo sapiens, UniProt P19429+P45379+P63316); assay: Fluorescence-based biochemical high throughput dose response assay for activators of the calcium sensitivity of cardiac Regulated Thin Filaments (RTF). [Related pubchem assays (depositor defined):AID493008, AID493018, AID504382, AID504383]; type: protein-complex assay
[21] = decrease of PhoP-driven GFP reporter signal, S. Typhimurium, dose response, PhoP regulon inhibitor project, purified and synthesized compounds, set 2 (AID 2831); type: functional
[22] = molecular target: T6, Cannabinoid receptor 1 (Homo sapiens, UniProt P21554); assay: SAR analysis of agonists of the Cannabinoid Receptor 1 using an Image-Based Assay - Set 3. [Related pubchem assays (depositor defined):AID1961, AID1965]; type: functional
[23] = molecular target: T7, G-protein coupled receptor 35 (Homo sapiens, UniProt Q9HC97); assay: SAR analysis of Antagonists of the GPR35 Receptor using an Image-Based Assay - Set 4. [Related pubchem assays (depositor defined):[…]]; type: functional
[24] = molecular target: G-protein coupled receptor 55 (Homo sapiens, UniProt Q9Y2T6); assay: SAR analysis of selective Agonists of GPR55 using an Image-Based Assay - Set 2. [Related pubchem assays (depositor defined):AID1961, AID1965]; type: functional
[25] = molecular target: T8, Cannabinoid receptor 2 (Homo sapiens, UniProt P34972); assay: SAR analysis of antagonists of the Cannabinoid Receptor 2 using an Image-Based Assay - Set 2. [Related pubchem assays (depositor defined):AID1961, AID1965]; type: functional
[26] = molecular target: T6, Cannabinoid receptor 1; assay: SAR analysis of antagonists of the Cannabinoid Receptor 1 using an Image-Based Assay - Set 3. [Related pubchem assays (depositor defined):AID1961, AID1965]; type: functional
[27] = molecular target: T8, Cannabinoid receptor 2; assay: SAR analysis of agonists of the Cannabinoid Receptor 2 using an Image-Based Assay - Set 2. [Related pubchem assays (depositor defined):AID1961, AID1965]; type: functional
[28] = molecular target: T7, G-protein coupled receptor 35; assay: SAR analysis of Agonists of the GPR35 Receptor using an Image-Based Assay - Set 3. [Related pubchem assays (depositor defined):AID1961, AID1965]; type: functional
[29] = HeLa cell cytotoxicity, dose response, cytotoxicity control for MgcRacGAP inhibitor project (AID 624300); type: functional
[30] = molecular target: Hexokinase-1 (Homo sapiens, UniProt P19367); assay: hexokinase 1 activators, dose response, selectivity assay for HKDC1 activator project, biochemical (AID 504762); type: functional
[31] = molecular target: Luciferin 4-monooxygenase (Photinus pyralis, UniProt P08659); assay: firefly luciferase enzyme inhibitors, dose response, biochemical, luminescence (AID 1891)
[32] = molecular target: T9, Rac GTPase-activating protein 1 (Homo sapiens, UniProt Q9H0H5); assay: MgcRacGAP GTPase-activating activity inhibitors, confirmation, biochemical, ADP Hunter fluorescence, primary and confirmatory (AID 624330); type: functional
T9 sequence (Q9H0H5 whole entry): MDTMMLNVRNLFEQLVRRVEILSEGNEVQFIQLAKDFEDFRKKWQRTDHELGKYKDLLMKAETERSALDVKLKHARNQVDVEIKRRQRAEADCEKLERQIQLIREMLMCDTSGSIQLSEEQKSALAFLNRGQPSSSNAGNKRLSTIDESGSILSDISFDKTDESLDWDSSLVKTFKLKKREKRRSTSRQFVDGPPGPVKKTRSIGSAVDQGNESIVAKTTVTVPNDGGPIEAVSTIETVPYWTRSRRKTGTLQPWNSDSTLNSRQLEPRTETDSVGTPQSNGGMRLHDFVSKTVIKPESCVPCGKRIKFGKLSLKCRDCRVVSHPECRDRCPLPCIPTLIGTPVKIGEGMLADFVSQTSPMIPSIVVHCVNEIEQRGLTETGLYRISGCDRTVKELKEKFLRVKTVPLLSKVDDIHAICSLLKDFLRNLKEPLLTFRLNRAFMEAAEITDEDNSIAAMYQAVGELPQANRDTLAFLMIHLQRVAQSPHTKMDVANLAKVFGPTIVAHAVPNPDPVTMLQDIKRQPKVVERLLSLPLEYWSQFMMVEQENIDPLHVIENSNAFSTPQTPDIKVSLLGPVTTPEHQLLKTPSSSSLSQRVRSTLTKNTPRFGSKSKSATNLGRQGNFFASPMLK

[33] = molecular target: Nonstructural protein 1 (Influenza A virus, UniProt Q194T2); type: functional, Influenza A virus (A/California/07/2009(H1N1))
[34] = Luminescence Cell-Based Dose Confirmation HTS to Identify Inhibitors of Platelet Dense Granule Release. [Related pubchem assays: 1663 (Primary HTS), 1678 (Summary of Project)]; type: functional
[35] = molecular target: Hexokinase HKDC1 (Homo sapiens, UniProt Q2TB90); assay: HKDC1 hexokinase activators, dose response, biochemical, W721R variant (AID 504730); type: functional

Clc1cccc(CN2CCc3c([nH]c4ccccc34)C2)c1Cl
AC50 [1]: 117 µM (active)
AC50 [2]: 3.27 µM (active)
AC50 [3]: 4.83 µM (active)

COc1ccc(/C=N/NC(=O)c2cc3c(OC)ccc(OC)c3[nH]2)cc1O
EC50 [4]: 13.3 µM (active)
EC50 [5]: 2.9 µM (active)
EC50 [6]: 1.75 µM (active)
EC50 [7]: 29.5 µM (inconclusive)
EC50 [8]: 0.765 µM (inconclusive)
EC50 [9]: 0.291 µM (active)
EC50 [10]: 2.51 µM (inconclusive)
EC50 [11]: 0.747 µM (active)
EC50 [12]: 9.89 µM (active)

C[N+]1(CC2COC(c3ccco3)O2)CCCCC1 (stereo not given)
IC50 [13]: 3.23 µM (active)
IC50 [14]: 3.15 µM (active)
EC50 [15]: > 195 µM (not active)
IC50 [16]: 3.34 µM (active)

Cc1nn(Cc2ccccc2)c(Cl)c1C(=O)OC(C)C#N (stereo not given)
EC50 [17]: > 50 µM (inactive)

Cc1ccc(S(=O)(=O)c2c(N)n(Cc3ccco3)c3nc4ccccc4nc23)cc1
IC50 [18]: > 100 µM (inactive)
IC50 [19]: > 100 µM (inactive)

O=C(NC1CCCCC1)c1cccc2c1C(=O)c1ccc(N3CCCC3)cc1S2(=O)=O
EC50 [20]: 6.65 µM (active)

S=C(NCc1ccc(Cl)cc1)Nc1ccc(Cl)cc1
IC50 [21]: > 150 µM (active)

Cc1ccc(Cl)cc1N1CCN(C(=O)c2cc(S(=O)(=O)N(C)C)ccc2N2CCCC2)CC1
EC50 [22]: > 32 µM (inactive)
IC50 [23]: > 32 µM (inactive)
EC50 [24]: 8.84 µM (active)
IC50 [25]: > 32 µM (inactive)
IC50 [26]: > 32 µM (inactive)
EC50 [27]: > 32 µM (inactive)
EC50 [28]: > 32 µM (inactive)

Cc1nonc1C(=O)N/N=C/c1ccc(O)cc1O
CC50 [29]: 100 µM (active)
EC50 [30]: > 80 µM (inactive)
EC50 [31]: 0.667 µM (active)
IC50 [32]: 69.4 µM (active)
IC50 [33]: 4.75 µM (active)
EC50 [34]: 0.136 µM (active)
EC50 [35]: > 80 µM (inactive)
